These results are taken from ChEMBL document CHEMBL6087414, “Discovery of 4-(4-(3-(1-(2-(piperidin-1-yl)ethyl)-1H-benzo[d]imidazole-2-yl)isoxazol-5-yl)phenyl)morpholine as a novel c-Myc inhibitor against lung cancer in vitro and in vivo” (Eur J Med Chem, 2025).

One test has as its system NCI-H1299. The test is described as follows: Cytotoxicity against human NCI-H1299 cells assessed as inhibition of cell viability incubated for 48 hrs by CCK8 assay. The test is classed as functional, cell-based. Conditions: NCI-H1299, 48 h. On the technique in general: Tetrazolium assays rely on reduction of a dye to a coloured formazan, in cell work by metabolically active cells.

The next test concerns A549. Put plainly: Cytotoxicity against human A549 cells assessed as inhibition of cell viability incubated for 48 hrs by CCK8 assay. The test is classed as functional, cell-based. Conditions: A549, 48 h.

pIC50: −log10 of the molar value.

Turning to `CCN(CC)CCCn1c(-c2cc(-c3ccc(N4CCCCC4)cc3)on2)nc2ccccc21`, the results for the pIC50 in the test on NCI-H1299 and in the test with A549 were 4.74 and 5.13, respectively.
On the same counts, the results for `CN(C)c1ccc(-c2cc(-c3nc4ccccc4n3CCCN3CCOCC3)no2)cc1` are 4.77 and 4.87.
`c1ccc2c(c1)nc(-c1cc(-c3ccc(N4CCCCCC4)cc3)on1)n2CCCN1CCOCC1`: the pIC50 with NCI-H1299 is 4.65; in the test with A549, 4.69.
Regarding `Cc1cc(C)cc(C(=O)n2c(-c3cc(-c4ccc(N5CCOCC5)cc4)on3)nc3ccccc32)c1`, the pIC50 with NCI-H1299 was under 4.40; in the test with A549 it was 4.72.
The matching figures for `CCN(CC)CCCn1c(-c2cc(-c3ccc(N4CCOCC4)cc3)on2)nc2ccccc21`: 4.66 and 5.07.
The matching figures for `CN(C)CCCn1c(-c2cc(-c3ccc(N4CCCCCC4)cc3)on2)nc2ccccc21`: 4.89 and 5.09.
On the same counts, the results for `CN(C)CCCn1c(-c2cc(-c3ccc(N4CCCCC4)cc3)on2)nc2ccccc21` are 4.81 and 5.22.
As to `O=C(c1ccccc1)n1c(-c2cc(-c3ccc(F)cc3)on2)nc2ccccc21`, the pIC50 in the test on NCI-H1299 was 4.62; in the test on A549, under 4.40.
On the same counts, the results for `CN(C)CCCn1c(-c2cc(-c3ccc(N4CCOCC4)cc3)on2)nc2ccccc21` are 4.65 and 5.00.
On the same counts, the results for `Cc1cc(C)cc(OCCn2c(C3CC(=O)N(c4cccc(C)c4)C3)nc3ccccc32)c1` (configuration not stated) are 4.73 and 4.82.
On the same counts, the results for `CN(C)c1ccc(-c2cc(-c3nc4ccccc4n3CCCN3CCCCC3)no2)cc1` are 4.77 and 4.94.
As to `c1ccc2c(c1)nc(-c1cc(-c3ccc(N4CCCCC4)cc3)on1)n2CCN1CCOCC1`, the figures for the pIC50 in the test with NCI-H1299 and with A549 were 4.62 and 4.95, respectively.
The matching figures for `c1ccc2c(c1)nc(-c1cc(-c3ccc(N4CCCCC4)cc3)on1)n2CCN1CCCCC1`: 4.67 and 5.03.
The matching figures for `c1ccc2c(c1)nc(-c1cc(-c3ccc(N4CCCCCC4)cc3)on1)n2CCN1CCCCC1`: 4.66 and 4.96.
The matching figures for `c1ccc2c(c1)nc(-c1cc(-c3ccc(N4CCCCCC4)cc3)on1)n2CCN1CCCC1`: 4.61 and 4.98.
On to `CN(C)c1ccc(-c2cc(-c3nc4ccccc4n3CCN3CCCC3)no2)cc1`, for which the negative-log IC50 (pIC50) was 4.85 in the test with NCI-H1299 and 4.97 with A549.
The matching figures for `Cc1ccc(C(=O)n2c(-c3cc(-c4ccc(N5CCOCC5)cc4)on3)nc3ccccc32)cc1`: 4.65 and 4.72.
The matching figures for `CN(C)CCCn1c(-c2cc(-c3ccc(N(C)C)cc3)on2)nc2ccccc21`: 4.75 and 4.69.
On the same counts, the results for `c1ccc2c(c1)nc(-c1cc(-c3ccc(N4CCCCCC4)cc3)on1)n2CCN1CCCCCC1` are 4.58 and 4.83.
`CN(C)CCn1c(-c2cc(-c3ccc(N4CCOCC4)cc3)on2)nc2ccccc21`: the pIC50 with NCI-H1299 was 4.72; in the test on A549, 5.05.
On the same counts, the results for `CCN(CC)CCCn1c(-c2cc(-c3ccc(N(C)C)cc3)on2)nc2ccccc21` are 4.71 and 5.06.
On the same counts, the results for `c1ccc2c(c1)nc(-c1cc(-c3ccc(N4CCOCC4)cc3)on1)n2CCCN1CCOCC1` are 4.64 and 4.87.
On the same counts, the results for `c1ccc2c(c1)nc(-c1cc(-c3ccc(N4CCCC4)cc3)on1)n2CCCN1CCOCC1` are 4.44 and 4.53.
On to `c1ccc(Cn2c(-c3cc(-c4ccc(N5CCOCC5)cc4)on3)nc3ccccc32)cc1`, for which the pIC50 in the test on NCI-H1299 and in the test on A549 was under 4.40 throughout.
In the case of `c1ccc2c(c1)nc(-c1cc(-c3ccc(N4CCCCC4)cc3)on1)n2CCN1CCCCCC1`, the values for the pIC50 in the test on NCI-H1299 and with A549 were 4.78 and 5.03, respectively.
The matching figures for `CCN(CC)CCCn1c(-c2cc(-c3ccc(N4CCCCCC4)cc3)on2)nc2ccccc21`: 4.85 and 4.91.

For orientation: pIC50 means −log10 of the IC50, conventionally taken in molar units.
